# How the values were obtained:
# [1] = system: Lactobacillus rhamnosus GG (LGG); test: LGG proliferation in culture (OD600); assay type: cell-based; settings: compared with scrambled miRNA
# Protocol: Bacteria. Lactobacillus rhamnosus (LGG) was obtained from ATCC® (Catalog No. 53103). The SpaC-deleted LGG was cultured in Lysogeny broth (LB; ISC BioExpress, Kaysville, Utah, United States of America) at 37° C. Ruminococcaceae sp. (ATCC® Catalog No. TSD-27) was grown in GS2+cellobiose medium (Biddle et al., 2013). Listeria monocytogenes (Listeria; ATCC® Catalog No. 15313) and Bacteroides fragilis (Fragilis, NCTC 9343) were cultured in brain heart infusion (BHI) broth (Hardy Diagnostics, Santa Maria, California, United States of America) as described in Zhang & Wang, 2015 and Deng et al., 2015, respectively. LGG was grown in MRS broth media at 37° C. in anaerobic conditions for 14-16 hours to an OD600 of 0.8-1.0. Bacterial viability and concentration were checked by MRS agar platting. Cultures were centrifuged and the bacterial pellet was diluted in MRS for in vitro experiments and in PBS for gavaging at 10^9 CFU/mouse per day.
# [2] = system: MC-38 cells; test: Migration assay, intracellular LGG; assay type: cell-based, C57BL/6 murine
# Protocol: Cells. C57BL/6 murine colon adenocarcinoma MC-38 cells (gender unknown; Kerafast, Inc., Boston, Massachusetts, United States of America) or human epithelial colorectal adenocarcinoma Caco-2 cells (American Type Culture Collection, ATCC®, Manassas, Virginia, United States of America) were grown in tissue culture plates with Dulbecco's modified Eagle's medium (DMEM) supplemented with 10% heat-inactivated fetal bovine serum (FBS), 100 U/mL penicillin, and 100 μg/mL streptomycin at 37° C. in a 5% CO2 atmosphere.
# Migration Assays. MC-38 or Caco-2 cells (ATCC) were seeded at 1×10^5 cells per well in a 12-well tissue culture plate with Dulbecco's modified Eagle's medium (DMEM) without antibiotics. The cells were inoculated with 1×10^7 bacteria per well for 90 minutes at 37° C. in a 5% CO2 atmosphere to allow bacterial adhesion and entry. The number of intracellular bacteria was quantified as described in Zhang & Wang, 1998.
# [3] = system: SpaC; test: Immunogold labeling of LGG pili and TEM; assay type: cell-based, Lactobacillus rhamnosus; settings: compared with PBS or scrambled miRNA
# Protocol: Immunogold Labeling of LGG Pili and TEM. To visualize LGG pili via transmission electron microscopy (TEM), LGG cultures were grown overnight (OD600<1.0) and washed once with PBS. Formvar-carbon-coated copper grids (Electron Microscopy Sciences, Hatfield, Pennsylvania, United States of America) first were floated for 1 hour on droplets of the diluted LGG at 10^7/mL in PBS, washed several times with 0.02 M glycine in PBS, and then treated with a blocking solution of 1% bovine serum albumin (BSA) in PBS. The grids were then floated for 1 hour on droplets of anti-SpaC serum (1:100) in blocking solution. After a wash with 0.1% BSA in PBS, the grids were incubated for 20 minutes with protein A-conjugated 10-nm-diameter gold particles (Cytodiagnostics, Burlington, Ontario, Canada) diluted 1:55 in blocking solution. After one wash in PBS, the grids were fixed with 1% glutaraldehyde, washed with distilled water, and then stained with 1% ammonium molybdate on the surface of the EM grid. After excess ammonium molybdate was removed from the grid, images were visualized using a Thermo-Fisher TEM Tecnai Spirit at 80 kV, and images were collected with an AMT XR60 digital camera.
substance,measurement,setting,value
"ath-miR167a: GELN miRNA, SEQ ID NO: 9 (UGAAGCUGCCAGCAUGAUCUA; expressed or natural sequence)",growth of SpaC^del LGG,[1],no effect
same,LGG entry into MC38 cells,[2],could prevent the entry of LGG into gut epithelial cells
same,SpaC protein on pili of LGG (TEM),[3],much less SpaC protein could be detected on pili

# — patent publication US12036262B2, “Edible plant-derived nanoparticles for regulation of gut microbiota” (University of Louisville Research Foundation, Inc., priority 2017, dated 2024)
